Measurements from patent EP2229935A1, “Peptide derivatives or pharmaceutically acceptable salts thereof, method for producing the same, use of said derivatives and pharmaceutical composition” (Nebolsin, Vladimir Evgenievich, priority 1997, dated 1999).
Marks after values point to notes of the source that are not given here.

Columns and labels:
α-interferon = α-interferon production by splenocytes after stress; assay type: in vivo, Balb male mice; settings: 50 µg/kg orally
Description: (§1) Experiments were carried out on inbred Balb male mice with initial body mass 16-18 g. Each group included 12 animals. The model of swimming in warm water for 20 minutes was used to develop emotional-locomotory stress in animals. Stress development was estimated by the activity of natural killer lymphocytes (NK cells) and by functioning of the interferon system [Sukhikh T.G., Nossik N.N., Parshina O.V., Van'ko L.V., Meerson F.Z., Yershov F.I. Relationship between the natural cellular cytotoxicity system and the interferon system in immobilization stress. Bulletin of Experimental Biology (1984), ? , pp.593-595].
(§2) In studying interferon reaction of mouse splenocytes spleen cells were placed into incubation medium (the RPMI-1640 medium + 10% fetal calf serum), their concentration was brought to 1-3 x 10^8 cells/ml and they were incubated at 37°C for 24 hours. Newcasle disease virus (α-interferon induction) and FGA mitogen (γ-interferon induction) were used as intereferon inducers [Nossik N.N., Bopegamage S.A., Yershov F.I. Properties of interferons produced by different cell populations. Acta microbiologica Hungarica (1988), Vol. 35, Iss. 4, pp. 397-403].
(§3) Animals were divided into four groups, each including 36 mice. • Group 1 - intact animals not subjected to stress and given normal saline (NS). • Group 2 - animals which ere subjected to stress effect and given NS. • Group 3 - animals which were subjected to stress effect and administered compound III. • Group 4 - animals which were subjected to stress effect and administered compound XLIV.
(§4) Activity of NK-cells and interferon state were dynamically determined in 4 hours following stress, in 24 hours and then by days 5, 7 and 10.

[1] = test system: progesterone, 17-oxyprogesterone, 11-desoxycortisol and cortisol; assay: Blood serum hormone levels (radioimmunoassay); assay type: in vivo, guinea pigs; settings: for Progesterone, blood serum level (Experiment) / Oxyprogesterone, blood serum level (Experiment) / Desoxycortisol, blood serum level (Experiment) / Cortisol, blood serum level (Experiment): oral three times 50 µg/kg
Description: Sensibilization of animals was done as described in example 27. Blood for hormonal level determination was sampled in animals before commencement of experiment and 18 hours after the last drug administration from 10 to 11 hours. […] A comparative hormonal state analysis was carried out by individual changes in each animal in a group. Mean parametric values expressed in nM/l, are presented by the groups in table 21.
Blood serum levels of the hormones progesterone, 17-oxyprogesterone, 11-desoxycortisol and cortisol were determined by radioimmunoassay using the Beloris company kits. Hormone concentration in samples was determined by the relation graph between the activity of a precipitated bound labelled hormone and hormone concentration in the calibration samples.

γ-interferon = γ-interferon production by splenocytes after stress; assay type: in vivo, Balb male mice; settings: 50 µg/kg orally
Description: as §1, §2, §3, §4

Salmonella spp. = assay: Resistance of mice to Salmonella spp. infection; assay type: in vivo; settings: test compounds 500 µg/kg orally; for MLT: mean lifetime
Description: Effect of the compounds of general formula (I) on change in average lifetime of experimental animals infected with Salmonella spp.
Experiments were carried out on mongrel white mice of both sexes weighing 18-22 g. Compounds III, XLIV and the reference drug sodium nucleinate were administered orally for 3 days (a total of 6 times) prior and post infection (dosage regimen -3, -2, -1, 0, 1, 2, 3, where 0 is infection day). A 24-hour Salmonella spp. culture grown on Hottinger agar, was used for infecting. Normal saline solution was used to prepare cellular suspension. Suspension of Salmonella spp. cells was administered subcutaneously at a dose 5 x 10^8 cells per a mouse in 0.5 ml.

Male guinea pigs = assay: Antigen-induced bronchospasm in actively sensitized guinea pigs; assay type: in vivo; settings: sensitized guinea pigs
Description: Antiasthmatic effect of the test compounds was studied using an antigen-induced bronchospasm model in actively sensitized guinea pigs according to the Andersson method [Andersson P. Antigen induced bronchial anaphylaxis in actively sensitized guinea pig. Allergy (1980), Vol. 35, pp. 65-71].
Male guinea pigs were sensitized with intramuscular injection of 0.5 ml suspension comprising 20 micrograms ovalbumin (OVA, manufactured by the Sigma company [grade III]) and 100 mg Al(OH)3 per one animal. Anaphylaxis-provoking dose 150-200 µg/kg OVA in 0.1 ml normal saline was intravenously (v. jugularis) injected on day 26 after sensibilization. Bronchospasm induction and measuring external respiration parameters were carried out according to the method described in Yu-Hong L., Barnes P., Rogers D. Inhibition of neurogenic plasma exudation and bronchoconstriction by a K+ channel activator, BRL 38227, in guinea pig airways in vivo. Europ. J. Pharmacol. (?), Vol. 239, pp.257-259]. Measurement of respiration parameters was performed using a transducer (Ugo Basel, model 7020), connected with a cannula and a recorder (Millichrome), recording breathing amplitude. […] Efficacy of compounds was determined by change in bronchospasm value.
Inthal was used as a reference drug that was administered to animals at a dose 5 µg/kg according to the same dosage regimen as the test substances were administered. The control group of animals received equivalent amount of normal saline.
Groups of animals: group 1 - control; group 2 - animals given Inthal; group 3 - animals given oral compound XLIV; group IV - animals given oral compound III; group 5 - animals given intratracheal compound III; group 6 - animals given compound XLIX, group 7 - animals given compound XXXI, group 8 - animals given compound XLVI; group 9 - animals given compound VI, group 10 - animals given compound XLVIII.

[2] = Day 1 following infection, regimen -3..3
[3] = 50 µg/kg per os, 72, 48 and 18 hours prior to bronchospasm induction

| Compound | α-interferon, U/ml (α-interferon; 0 days after stress) [U/ml] | α-interferon, U/ml (α-interferon; 0.16 days after stress) [U/ml] | α-interferon, U/ml (α-interferon; 1 day after stress) [U/ml] | α-interferon, U/ml (α-interferon; 5 days after stress) [U/ml] | α-interferon, U/ml (α-interferon; 7 days after stress) [U/ml] | α-interferon, U/ml (α-interferon; 10 days after stress) [U/ml] | γ-interferon, U/ml (γ-interferon; 0 days after stress) [U/ml] | γ-interferon, U/ml (γ-interferon; 0.16 days after stress) [U/ml] | γ-interferon, U/ml (γ-interferon; 1 day after stress) [U/ml] | γ-interferon, U/ml (γ-interferon; 5 days after stress) [U/ml] | γ-interferon, U/ml (γ-interferon; 7 days after stress) [U/ml] | γ-interferon, U/ml (γ-interferon; 10 days after stress) [U/ml] | Number of dead mice (Salmonella spp.; [2]) | Number of dead mice (Salmonella spp.; Day 3 following infection) | Number of dead mice (Salmonella spp.; Day 5 following infection) | Number of dead mice (Salmonella spp.; Day 6 following infection) | Number of dead mice (Salmonella spp.; Day 7 following infection) | MLT (Salmonella spp.) [days] | Bronchospasm (percent of the maximum value) (Male guinea pigs; [3]) | further results |
| --- | --- | --- | --- | --- | --- | --- | --- | --- | --- | --- | --- | --- | --- | --- | --- | --- | --- | --- | --- | --- |
| O=C(O)CCCC(=O)NCCc1c[nH]cn1 [compound III, N-GLUTARYLHISTAMINE] | 160 | 10 | 10 | 160 | 160 | 160 | 80 | 80 | 32 | 32 | 320 | 80 | 1 | 1 | 1 | 2 | 2 | 4.5 ± 0.65 | 12.0 4.0** percent of the maximum value | hormonal state changes ([1]; intact and sensitized guinea pigs, compared with compound XLIV): the same hormonal state changes were observed; Number of dead mice (Salmonella spp.; Day 2 following infection): 1*^1; Number of dead mice (Salmonella spp.; Day 4 following infection): 2; Bronchospasm (percent of the maximum value) (Male guinea pigs; 50 µg/kg intratracheally, 15 minutes prior to bronchospasm induction): 24.6 6.4* percent of the maximum value |
| γ-L-glutamylhistamine [compound XLIV] | 160 | 10 | 80 | 80 | 100 | 140 | 80 | 20 | 320 | 40 | 32 | 32 | 3*^2 | 1 | 5 | 2 | 1 | 4.0 ± 0.73 | 15.6 3.2** percent of the maximum value | Progesterone, blood serum level (Experiment) ([1]; intact guinea pigs, individual control 2.53): 2.87 nM/l; Oxyprogesterone, blood serum level (Experiment) ([1]; intact guinea pigs, individual control 2.83): 3.88* nM/l; Desoxycortisol, blood serum level (Experiment) ([1]; intact guinea pigs, individual control 20.8): 30.95* nM/l; Cortisol, blood serum level (Experiment) ([1]; intact guinea pigs, individual control 1474.5): 1891.5* nM/l; Progesterone, blood serum level (Experiment) ([1]; sensitized guinea pigs, individual control 1.73): 5.08** nM/l; Oxyprogesterone, blood serum level (Experiment) ([1]; sensitized guinea pigs, individual control 1.79): 2.31* nM/l; Desoxycortisol, blood serum level (Experiment) ([1]; sensitized guinea pigs, individual control 28.9): 33.5 nM/l; Cortisol, blood serum level (Experiment) ([1]; sensitized guinea pigs, individual control 1910.3): 1997.0 nM/l |
